Experimental data published in patent US8815940B2, “Coumarin-chalcones as anticancer agents” (Council of Scientific & Industrial Research, priority 2010, dated 2014).
Where two headings read alike, the source gives them in different places.

Columns and labels:
[1] = tested on: mouse embryo fibroblast (NIH3T3); assay: sulforhodamine B cell cytotoxicity assay, NIH3T3 non-cancer cells; format: cell-based
Description: (§1) The human cancer cell lines—KB (oral squamous cell carcinoma). C33A (cervical carcinoma), MCF-7 (breast adenocarcinoma), A549 (lung carcinoma) and mouse embryo fibroblast (NIH3T3) were obtained from American Type Culture Collection (ATCC), USA. These cells were grown in recommended media supplemented with 10% FBS, 50 μg/mL gentamycin and 2.5 μg/mL amphotericin B in a 5% CO2 humidified atmosphere at 37° C. Cells below 15 passage level were used for this study. A colorimetric sulforhodamine B assay was used for the measurement of cell cytotoxicity. 1×10^4 cells (in 180 μL) were added to each well of 96-well plate and incubated overnight to allow for cell attachment. Cells were then treated with serial two-fold dilutions of test compounds (100 to 1.6 μM) and untreated cells receiving the same volume of medium served as control. After 48 h of exposure, cells were fixed with ice-cold 50% TCA, stained with 0.4% (w/v) SRB in 1% acetic acid, washed and air dried. Bound dye was dissolved in 150 μL of 10 mM tris base. The plates were read at 540 nm absorbance on plate reader (Polarstar Galaxy, BMG, Germany). The cytotoxic effects of compounds were calculated as % inhibition in cell growth as per the formula […].

[2] = tested on: MCF-7 (breast adenocarcinoma); assay: sulforhodamine B cell cytotoxicity assay, MCF-7; format: cell-based; settings: Homo sapiens, MCF7; Table 2; SRB assay, 48 h of exposure
Description: as §1

[3] = animal weight and overt toxicity in the xenograft study; format: in vivo, SCID mice; settings: for Average Animal weight: 100 mg/kg daily oral upto 15 days
Description: (§2) The in vivo efficacy studies were performed using human tumor xenografts in SCID mice. Human cervical cancer cells (HeLa) were injected subcutaneously (1×10^7 cells in 100 μl HBSS medium) on the right flank of each mouse. Tumor bearing mice were divided randomly into treatment groups and the treatment schedules began on day 7 of the xenograft. The test compound (S009-0131) was administered orally to each mouse at a daily dose of 100 mg/kg body weight, for 15 days. The standard anti-cancer drug Adriamycin (ADR) was used as ‘positive’ control and given to each mouse as an i.v. dose of 2 mg/kg body weight, Q7d×3 ([…]). The group of vehicle treated animals served as ‘negative’ control.
(§3) The tumor volume, body weight and signs of overt toxicity were monitored and recorded for the entire duration of the experiment (60 days). Tumor volumes were calculated using the formula (a×b2)/2, where a, b are two longest perpendicular diameters. Tumor growth was expressed in terms of relative tumor volume (RTV) which is the ratio of tumor volume on a particular day to the tumor volume on day 1 of the study. Tumor growth inhibition index (T/C) was calculated as follows: T/C=Average RTV of test group mice/Average RTV of control group mice.

human cancer cell lines = assay: in vitro anticancer activity, cell line panel (cell line not specified); format: cell-based; settings: poor activity or lack of activity against other cell lines
Description: as §1

[4] = tested on: KB (oral squamous cell carcinoma); assay: sulforhodamine B cell cytotoxicity assay, KB; format: cell-based; settings: Homo sapiens; Table 2; SRB assay, 48 h of exposure
Description: as §1

A549 (lung carcinoma) = assay: sulforhodamine B cell cytotoxicity assay, A549; format: cell-based; settings: Homo sapiens, Table 2, SRB assay, 48 h of exposure
Description: as §1

[5] = tested on: HeLa Human cervical cancer cells; assay: human tumor xenograft in SCID mice, tumor growth; format: in vivo; settings: for T/C (tumor growth inhibition index): 100 mg/kg daily oral upto 15 days; for RTV (relative tumor volume): 100 mg/kg p.o. daily up to 15 days
Description: as §2, §3

[6] = tested on: C33A (cervical carcinoma); assay: sulforhodamine B cell cytotoxicity assay, C33A; format: cell-based, human; settings: for IC50: Homo sapiens, C-33-A
Description: as §1

[7] = Table 2, SRB assay, 48 h of exposure, read-out: IC50 NIH3T3 (Non-cancer, fibroblast)
[8] = Table 2, SRB assay, 48 h of exposure, read-out: IC50 C33A (Cervical)

SMILES: CCOC(=O)c1cc2cc(C=CC(=O)c3ccc(C)cc3)cc(C(C)CC)c2oc1=O (stereo not shown) [Example S009-0131, Ethyl 8-sec-butyl-2-oxo-6-(3-oxo-3-p-tolylprop-1-enyl)-2H-chromene-3-carboxylate]
- IC50 ([1]; Table 1, SRB assay, 48 h of exposure, read-out: IC50 NIH3T3 (mouse fibroblast)): > 150 µM
- IC50 [1, 7]: > 150 µM
- IC50 ([1]; read-out: IC50 fibroblast cells NIH3T3): > 150 µM
- IC50 [2]: 81.1 µM
- Average Animal weight ([3]; day 1): 24.2 grams
- Average Animal weight ([3]; day 5): 24.2 grams
- Average Animal weight ([3]; day 9): 23.5 grams
- Average Animal weight ([3]; day 12): 18.5 grams
- Average Animal weight ([3]; day 15): 22.6 grams
- Average Animal weight ([3]; day 19): 22.4 grams
- Average Animal weight ([3]; day 22): 23.0 grams
- Average Animal weight ([3]; day 25): 23.2 grams
- Average Animal weight ([3]; day 29): 23.6 grams
- Average Animal weight ([3]; day 33): 23.3 grams
- Average Animal weight ([3]; day 37): 23.0 grams
- Average Animal weight ([3]; day 41): 23.4 grams
- Average Animal weight ([3]; day 44): 23.8 grams
- Average Animal weight ([3]; day 51): 23.4 grams
- toxicity to the animals (loss of weight) ([3]; during the period of the study): apparently non-toxic
- selectivity among cell lines (human cancer cell lines): most selective
- IC50 [4]: 18 µM
- IC50 (A549 (lung carcinoma)): 32.8 µM
- activity compared with standard drug adriamycin ([5]; HeLa xenograft, SCID mice): somewhat better than that of the standard drug adriamycin
- T/C (tumor growth inhibition index) ([5]; day 1): 1
- RTV (relative tumor volume) ([5]; day 1): 1
- T/C (tumor growth inhibition index) ([5]; day 5): 0.58
- RTV (relative tumor volume) ([5]; day 5): 0.76
- T/C (tumor growth inhibition index) ([5]; day 9): 0.48
- RTV (relative tumor volume) ([5]; day 9): 0.79
- T/C (tumor growth inhibition index) ([5]; day 12): 0.61
- RTV (relative tumor volume) ([5]; day 12): 1.21
- T/C (tumor growth inhibition index) ([5]; day 15): 0.39
- RTV (relative tumor volume) ([5]; day 15): 1.28
- T/C (tumor growth inhibition index) ([5]; day 19): 0.28
- RTV (relative tumor volume) ([5]; day 19): 1.01
- T/C (tumor growth inhibition index) ([5]; day 22): 0.33
- RTV (relative tumor volume) ([5]; day 22): 1.73
- T/C (tumor growth inhibition index) ([5]; day 25): 0.29
- RTV (relative tumor volume) ([5]; day 25): 1.82
- T/C (tumor growth inhibition index) ([5]; day 29): 0.33
- RTV (relative tumor volume) ([5]; day 29): 2.39
- T/C (tumor growth inhibition index) ([5]; day 33): 0.42
- RTV (relative tumor volume) ([5]; day 33): 4.20
- T/C (tumor growth inhibition index) ([5]; day 37): 0.42
- T/C (tumor growth inhibition index) ([5]; day 41): 0.44
- T/C (tumor growth inhibition index) ([5]; day 44): 0.45
- T/C (tumor growth inhibition index) ([5]; day 51): 0.38
- tumor volumes relative to the vehicle control ([5]; oral administration, mice bearing HeLa cells): significant reduction of tumor volumes
- IC50 ([6]; Table 1, SRB assay, 48 h of exposure, read-out: IC50 C33A (cervical cancer)): 3.59 µM
- IC50 [6, 8]: 3.59 µM
- IC50 ([6]; read-out: IC50 against the C33A cell line): 3.59 µM
- activity against cervical cancer (C33A) ([6]; in words): highly active

SMILES: CCOC(=O)c1cc2cc(/C=C/C(=O)c3cc(OC)c(OC)c(OC)c3)cc(C(C)CC)c2oc1=O (stereo not shown) [Example S010-2000, (E)-ethyl 8-sec-butyl-2-oxo-6-(3-oxo-3-(3,4,5-trimethoxyphenyl)prop-1-enyl)-2H-chromene-3-carboxylate]
- IC50 [1, 7]: > 150 µM
- IC50 [2]: 11.5 µM
- IC50 [4]: 9.36 µM
- IC50 (A549 (lung carcinoma)): 11.6 µM
- IC50 [6, 8]: 5.72 µM
- melting point: 128 to 129 °C

SMILES: CCC(C)c1cc(/C=C/C(=O)c2cc(OC)c(OC)c(OC)c2)cc2cc(C(=O)OC)c(=O)oc12 (stereo not shown) [Example S010-2001, (E)-methyl 8-sec-butyl-2-oxo-6-(3-oxo-3-(3,4,5-trimethoxyphenyl)prop-1-enyl)-2H-chromene-3-carboxylate]
- IC50 [1, 7]: > 150 µM
- IC50 [2]: 10.2 µM
- IC50 [4]: 3.1 µM
- IC50 (A549 (lung carcinoma)): 3.68 µM
- IC50 [6, 8]: 2.56 µM
- melting point: 138 to 139 °C

SMILES: COC(=O)c1cc2cc(/C=C/C(=O)c3cc(OC)c(OC)c(OC)c3)cc(C(C)(C)C)c2oc1=O [Example S010-2003, (E)-methyl 8-tert-butyl-2-oxo-6-(3-oxo-3-(3,4,5-trimethoxyphenyl)prop-1-enyl)-2H-chromene-3-carboxylate]
- IC50 [1, 7]: > 150 µM
- IC50 [2]: 13.3 µM
- IC50 [4]: 8.3 µM
- IC50 (A549 (lung carcinoma)): 11.1 µM
- IC50 [6, 8]: 4.99 µM
- melting point: 145 to 146 °C
